Source: article PMC8602566 (Frontiers in Oncology, 2021)

Columns and labels:
[1] = system: acetylated histone H3 in U87 cells; assay: Western blot analysis for H3-histone acetylation; type: cell-based, Human; settings: various concentrations, 24 h
Procedure: U87 cells (5 × 10^5 cells/ml) in six-well plates were incubated with DMC-HA and lysed in radioimmunoprecipitation assay (RIPA) buffer containing protease and phosphatase inhibitors. Protein contents in the lysates were determined by Bradford’s assay, and 50 μg was separated by SDS polyacrylamide gel electrophoresis (SDS-PAGE) electrophoresis. Proteins were transferred to membranes and probed with human anti-acetylated H3 and anti-β actin antibodies as a loading control. Membranes were then labeled with the appropriate horseradish peroxidase (HRP)-conjugated immunoglobulin G (IgG), and protein bands were visualized using enhanced chemiluminescence. (Bio-Rad, Hercules, CA, USA).
Next, DMC-HA-induced acetylation of histone H3 in living cells was analyzed using Western blot method.

[2] = system: U87 tumor xenograft; settings: nude mice, 20 mg/kg once daily
Source text: Six-week-old BALB/c nude mice were purchased from Shanghai Experimental Animal Center of Chinese Academy of Science (Shanghai, China). All animal protocols were implemented according to the guidelines of the Association for Assessment and Accreditation of Laboratory Animal Care. U87 cells (3 × 10^6) were subcutaneously implanted into the right flank of mice. After 6 days of tumor growth, tumors grew to approximately 100 mm^3, and mice were randomly divided into three groups with nine animals in each group. […] The control group was intraperitoneally injected an equal volume of DMSO. Body weights and tumor volumes were measured every 2 days. After treatment, all of the mice were sacrificed, and the tumors were harvested, weighted, and photographed. The tumor volume was calculated according the formula: tumor volume = (length × width^2)/2.
U87 cells were subcutaneously inoculated into the right flank of mice.

[3] = biological target: SIRT1 (Homo sapiens, UniProt Q96EB6); assay: HDACs inhibition assay, SIRT1
Procedure: The inhibition assays for HDACs were carried out according to standard protocols. […] The reaction was stopped by the addition of 45 μl of 100 mM HEPES (pH 7.5) and 0.08% sodium dodecyl sulfate (SDS). The substrate and the product were then separated electrophoretically using a LabChip 3000 system (Caliper Life Sciences, Hopkinton, MA) with blue laser excitation and green fluorescence detection.

[4] = system: Human lung cancer cell line A549; assay: MTT cell viability assay, A549; type: cell-based; settings: A549, 72 h, read-out: IC50 antiproliferative activity A549
Procedure: (§1) Cell viability was measured using the 3-(4,5-dimethylthiazol-2-yl)-2,5-diphenyltetrazolium bromide (MTT) assay and was expressed as a ratio to the absorbance value at 570 nm of the control cells.

[5] = system: Human liver cancer cell line HepG2; assay: MTT cell viability assay, HepG2; type: cell-based; settings: HepG2, 72 h, read-out: IC50 antiproliferative activity HepG2
Procedure: as §1

[6] = system: Human leukemia cell line K562; assay: MTT cell viability assay, K562; type: cell-based; settings: K562, 72 h, read-out: IC50 antiproliferative activity K562
Procedure: as §1

[7] = system: Human colon carcinoma cell line SW-620; assay: MTT cell viability assay, SW-620; type: cell-based; settings: SW-620, 72 h, read-out: IC50 antiproliferative activity SW-620
Procedure: as §1

[8] = system: Human glioblastoma cell line U251; assay: MTT cell viability assay, U251; type: cell-based; settings: U-251, 72 h, read-out: IC50 antiproliferative activity U251
Procedure: as §1

[9] = system: Human glioblastoma cell line U87; assay: MTT cell viability assay, U87; type: cell-based; settings: 72 h, read-out: IC50 antiproliferative activity U87
Procedure: Human GBM U87 cell line was purchased from the American Type Culture Collection (ATCC). Cells were cultured in Dulbecco’s modified Eagle’s medium (DMEM) supplemented with 10% fetal bovine serum (FBS) and maintained in a 37°C, 5% CO2 incubator. After cells were routinely passaged at 2- to 3-day intervals, experiments were carried out when the cells entered exponential growth phase.
as §1

[10] = system: Human glioma cell line SHG44; assay: MTT cell viability assay, SHG44; type: cell-based; settings: SHG-44, 72 h, read-out: IC50 antiproliferative activity SHG44
Procedure: as §1

[11] = system: Human glioma cell line LN229; assay: MTT cell viability assay, LN229; type: cell-based; settings: LN-229, 72 h, read-out: IC50 antiproliferative activity LN229
Procedure: as §1

[12] = system: Human umbilical vein endothelial cells HUVEC; assay: MTT cell viability assay, HUVEC; type: cell-based; settings: Homo sapiens, HUVEC, 72 h, read-out: IC50 HUVEC
Procedure: as §1

[13] = system: all eight cell lines; assay: Antiproliferative activity, panel of eight cancer cell lines (summary); type: cell-based; settings: Homo sapiens, read-out: IC50 values against all eight cell lines
Procedure: Cells (5 × 10^4) were seeded into 96-well plates and exposed to vehicle (PBS) or different concentrations of compounds for 72 h. Cell viability was measured using the 3-(4,5-dimethylthiazol-2-yl)-2,5-diphenyltetrazolium bromide (MTT) assay and was expressed as a ratio to the absorbance value at 570 nm of the control cells.
As DMC-HA was identified as a potent novel inhibitor for HDACs, its antiproliferative activities on a panel of cancer cell lines and normal cells were evaluated, including four glioma cell lines, and the results are shown in Table 2. Vorinostat and curcumin were also tested as positive controls. […].

[14] = Hepatic microsome stability assay, human; type: in vitro ADME; settings: human liver microsomes, NADPH, 37°C, pH 7.4
Procedure: (§2) Metabolic stability was assessed in the presence of human, mouse, and rat liver microsomes (XenoTech, Lenexa, KS, USA). All liquid dispenses and transfer steps were performed with the Freedom Evo automated liquid handler (Tecan US). Compound stock solutions were initially prepared in 100% DMSO and subsequently diluted in acetonitrile for the assay. The pH of the reactions was kept at 7.4 with potassium phosphate buffer. The reaction wells were prepared by adding microsomes to a well and allowed to warm to 37°C. Then, compound was added to each well. The reactions were […] by adding cofactor reduced nicotinamide adenine dinucleotide phosphate (NADPH) to the reaction well containing microsomes and compounds. Negative controls received buffer only. Immediately after reactions started, 0-min aliquots were promptly collected and mixed in a separate well with ice cold acetonitrile to quench the reactions. The remainder of the reaction volume was incubated at 37°C with shaking. An additional aliquot was collected at 60 min after the start of the reaction and promptly quenched with ice cold acetonitrile. Samples were vortexed and centrifuged at 3,500 rpm for 10 min. The amount of compound in the supernatant was determined by liquid chromatography–tandem mass spectrometry (LC/MS/MS) (Thermo Fischer Scientific, San Jose, CA, USA), and the percent of parent compound remaining after 60 min was calculated. Results are the mean of each reaction triplicate, normalized to the internal standard, and expressed as the percent of compound remaining after the incubation time.
(§3) Structures that are active in vitro may not be potent in vivo due to their susceptibility to metabolism in the body. We then thoroughly examined the liver microsomal metabolic stability of DMC-HA across three different species (Table 3). […] In addition, the half-life of DMC-HA in human microsome is generally two to three times longer than those in mice and rats. Collectively, the in vitro liver microsomal stability of DMC-HA is favorable, guaranteeing its further in vivo studies.

[15] = Hepatic microsome stability assay, mice; type: in vitro ADME; settings: mouse liver microsomes, NADPH, 37°C, pH 7.4
Procedure: as §2, §3

[16] = Hepatic microsome stability assay, rat; type: in vitro ADME; settings: rat liver microsomes, NADPH, 37°C, pH 7.4
Procedure: as §2, §3

Sequence of SIRT1 (Q96EB6 whole entry): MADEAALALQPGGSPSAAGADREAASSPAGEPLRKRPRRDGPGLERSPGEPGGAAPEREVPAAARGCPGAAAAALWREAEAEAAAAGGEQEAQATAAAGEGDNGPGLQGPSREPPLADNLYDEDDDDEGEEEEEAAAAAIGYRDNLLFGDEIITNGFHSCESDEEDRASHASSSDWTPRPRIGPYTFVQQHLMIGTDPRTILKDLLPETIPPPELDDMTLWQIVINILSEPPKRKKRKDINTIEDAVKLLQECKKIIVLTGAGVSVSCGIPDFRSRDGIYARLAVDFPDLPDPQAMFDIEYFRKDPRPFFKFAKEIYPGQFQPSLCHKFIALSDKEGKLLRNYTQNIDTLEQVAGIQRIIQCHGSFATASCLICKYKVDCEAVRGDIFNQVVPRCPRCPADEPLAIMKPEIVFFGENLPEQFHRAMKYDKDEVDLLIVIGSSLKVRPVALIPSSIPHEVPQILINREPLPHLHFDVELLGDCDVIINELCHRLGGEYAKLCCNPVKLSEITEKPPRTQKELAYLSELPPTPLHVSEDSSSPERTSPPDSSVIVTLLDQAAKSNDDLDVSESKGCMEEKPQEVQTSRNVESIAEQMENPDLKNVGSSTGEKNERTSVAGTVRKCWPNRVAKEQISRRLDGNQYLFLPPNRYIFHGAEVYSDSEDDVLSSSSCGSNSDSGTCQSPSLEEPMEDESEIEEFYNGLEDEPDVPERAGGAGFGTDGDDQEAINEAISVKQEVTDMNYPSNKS

| Structure (SMILES) | acetylation of histone H3, dose dependence [1] | effects on the body weight [2] | toxicity during the administration period [2] | IC50 [3] [µM] | IC50 [4] [µM] | IC50 [5] [µM] | IC50 [6] [µM] | IC50 [7] [µM] | IC50 [8] [µM] | IC50 [9] [µM] | IC50 [10] [µM] | IC50 [11] [µM] | IC50 [12] [µM] | IC50 [13] [µM] | microsomal CLint [14] [µL/min/mg] | half-life ([14]; read-out: Human Liver Microsomal Stability T1/2) [min] | microsomal CLint [15] [µL/min/mg] | half-life ([15]; read-out: Mice Liver Microsomal Stability T1/2) [min] | microsomal CLint [16] [µL/min/mg] | half-life ([16]; read-out: Rat Liver Microsomal Stability T1/2) [min] |
| --- | --- | --- | --- | --- | --- | --- | --- | --- | --- | --- | --- | --- | --- | --- | --- | --- | --- | --- | --- | --- |
| O=C(CCCCCCC(=O)Nc1ccccc1)NO [Vorinostat, suberoylanilide hydroxamic acid, reference compound] | dose dependently increased the acetylation of histone H3 | no effects on the body weight | no observable toxicity | > 10 | – | – | – | – | – | – | – | – | – | – | – | – | – | – | – | – |
| COc1cc(/C=C/C(=O)CC(=O)/C=C/c2ccc(O)c(OC)c2)ccc1O [Curcumin, reference compound] | – | – | – | – | 32.9 ± 3.99 | 18.3 ± 3.21 | 16.4 ± 1.23 | 49.2 ± 7.42 | 27.6 ± 3.11 | 31.9 ± 2.9 | 24.6 ± 4.52 | 21.9 ± 4.65 | 58.5 ± 7.92 | 16.4 to 49.2 | 82 | 17.2 | 92.9 | 15.3 | 138 | 10.4 |
